Data from US20060154243A1 (priority 2003, published 2006).

How the values were obtained:
[1] = system: serum 1a (individual 1, early serum); format: binding, human
[2] = system: serum 1b (individual 1, late serum); format: binding, human
serum 2 (individual 2) = format: binding, human
serum 6 (individual 6) = format: binding, human
serum 37 (individual 37) = format: binding, human
serum 62 (individual 62) = format: binding, human
serum London = format: binding, human
serum SARS-yellow = format: binding, human
serum SARS-green = format: binding, human
[3] = system: control serum LUMC (pooled serum of ten healthy hospital workers); format: binding, human
[4] = system: control serum Blood-bank (commercial negative donor pooled serum); format: binding, human
[5] = system: rabbit serum obtained by immunizing with SARS-CoV strain Frankfurt 1; format: binding

Row | Sequence | Binding of serum 1a to linear peptides of Orf14 of SARS-CoV TOR2 [1] | Binding of serum 1b to linear peptides of Orf14 of SARS-CoV TOR2 [2] | Binding of serum 2 to linear peptides of Orf14 of SARS-CoV TOR2 (serum 2 (individual 2)) | Binding of serum 6 to linear peptides of Orf14 of SARS-CoV TOR2 (serum 6 (individual 6)) | Binding of serum 37 to linear peptides of Orf14 of SARS-CoV TOR2 (serum 37 (individual 37)) | Binding of serum 62 to linear peptides of Orf14 of SARS-CoV TOR2 (serum 62 (individual 62)) | Binding of serum London to linear peptides of Orf14 of SARS-CoV TOR2 (serum London) | Binding of serum SARS-yellow to linear peptides of Orf14 of SARS-CoV TOR2 (serum SARS-yellow) | Binding of serum SARS-green to linear peptides of Orf14 of SARS-CoV TOR2 (serum SARS-green) | Control serum LUMC linear peptides [3] | Control serum LUMC looped peptides [3] | Control Serum Blood-Bank Looped peptides [4] | Control serum Blood-bank linear peptides [4] | Recognition by the rabbit serum [5]
1 | EAAVKPLLAPHHVVA | 0.6 | 0.5 | 0.7 | 0.5 | 0.7 | 0.6 | 0.8 | 0.6 | 0.6 | 0.8 | 0.7 | 0.8 | 0.6 | recognized by the rabbit serum
2 | AVKPLLAPHHVVAVI | 0.6 | 0.4 | 0.5 | 0.5 | 0.7 | 0.5 | 0.5 | 0.6 | 0.3 | 0.6 | 0.7 | 0.7 | 0.7 | recognized by the rabbit serum
3 | LEWLAEVVKLPSRYC | 0.6 | 0.3 | 0.4 | 0.4 | 0.7 | 0.4 | 0.5 | 0.2 | 0.1 | 0.4 | 0.7 | 0.8 | 0.4 | –
4 | LLAPHHVVAVIQEIQ | 0.5 | 0.5 | 0.5 | 0.5 | 0.6 | 0.5 | 0.5 | 0.5 | 0.3 | 0.6 | 0.8 | 0.8 | 0.4 | –
5 | LAAVGEILLLEWLAE | 0.6 | 0.5 | 0.5 | 0.5 | 0.7 | 0.5 | 0.6 | 0.6 | 0.5 | 0.6 | 0.7 | 0.7 | 0.4 | –
6 | AVIQEIQLLAAVGEI | 2.1 | 2.4 | 1.7 | 2.0 | 1.7 | 2.1 | 1.7 | 2.3 | 2.5 | 1.4 | 0.5 | 0.5 | 1.8 | –
7 | VGEILLLEWLAEVVK | 0.5 | 0.4 | 0.4 | 0.5 | 0.6 | 0.4 | 0.5 | 0.4 | 0.2 | 0.6 | 0.8 | 0.7 | 0.5 | –
8 | VKPLLAPHHVVAVIQ | 0.6 | 0.5 | 0.6 | 0.5 | 0.7 | 0.5 | 0.6 | 0.4 | 0.3 | 0.6 | 0.6 | 0.7 | 0.7 | recognized by the rabbit serum
9 | QLLAAVGEILLLEWL | 0.5 | 0.4 | 0.4 | 0.3 | 0.6 | 0.4 | 0.4 | 0.4 | 0.1 | 0.6 | 0.5 | 0.6 | 0.4 | –
10 | GEILLLEWLAEVVKL | 0.5 | 0.4 | 0.4 | 0.5 | 0.6 | 0.5 | 0.6 | 0.3 | 0.3 | 0.5 | 0.5 | 0.5 | 0.6 | –
11 | APHHVVAVIQEIQLL | 0.5 | 0.4 | 0.4 | 0.4 | 0.5 | 0.3 | 0.3 | 0.3 | 0.1 | 0.6 | 0.5 | 0.6 | 0.3 | –
12 | PHHVVAVIQEIQLLA | 0.4 | 0.3 | 0.4 | 0.4 | 0.5 | 0.3 | 0.3 | 0.4 | 0.2 | 0.5 | 0.6 | 0.5 | 0.4 | –
13 | LLEWLAEVVKLPSRY | 0.5 | 0.4 | 0.3 | 0.5 | 0.5 | 0.4 | 0.4 | 0.3 | 0.1 | 0.4 | 0.6 | 0.6 | 0.5 | –
